We go through 12 compounds from paper PMC5830763, “Discovery of benzothiazolylquinoline conjugates as novel human A3 receptor antagonists: biological evaluations and molecular docking studies” (Royal Society Open Science, 2018).

Usually Ki stands for the dissociation constant of the complex between target and ligand, obtained from inhibition or displacement. One may read the melting point as the temperature of the solid-liquid transition.

The target in one data set is T1, hA2BAR (Homo sapiens, UniProt P29275).
T1 construct: expressed in transfected cells; host or cells: CHO cells (crude membrane pellet)
T1 sequence (P29275 1-332): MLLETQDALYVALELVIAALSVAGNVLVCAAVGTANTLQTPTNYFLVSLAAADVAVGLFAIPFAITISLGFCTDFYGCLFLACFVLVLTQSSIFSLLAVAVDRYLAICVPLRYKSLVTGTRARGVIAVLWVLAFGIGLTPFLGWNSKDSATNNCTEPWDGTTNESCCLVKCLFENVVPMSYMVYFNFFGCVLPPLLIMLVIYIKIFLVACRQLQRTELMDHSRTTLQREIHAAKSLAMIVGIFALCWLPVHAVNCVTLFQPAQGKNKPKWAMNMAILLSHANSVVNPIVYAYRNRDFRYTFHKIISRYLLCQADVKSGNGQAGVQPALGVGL
Description: Inhibition of NECA-stimulated adenylyl cyclase activity in CHO cells expressing hA2BAR. It counts as biochemical. The settings on record: read-out: Ki hA2B (95% CI). How it is done:
(§1) The human A1, A2A, A2B, and A3ARs were transfected in CHO cells based on the previously reported method. The cells were grown adherently and maintained in Dulbecco's modified Eagle's medium with nutrient mixture F12 (DMEM/F12) without nucleosides, containing 10% foetal calf serum, streptomycin (100 µg ml^−1), penicillin (100 µg ml^−1), L-glutamine (2 mM) and Geneticin (G418, 0.2 mg ml^−1) at 37°C in 5% CO2, 95% air. The membrane preparation was initiated by removal of culture medium followed by washing of the cells with phosphate buffered saline and scraped off T75 flasks in ice-cold hypotonic buffer (5 mM Tris–HCl, 2 mM EDTA, pH7.4). Then the cell suspension was homogenized with a polytron, and the homogenate was centrifuged for 10 min at 1000 g. The supernatant was then centrifuged for 30 min at 100 000 g. The membrane pellet was suspended in (i) 50 mM Tris–HCl buffer, pH 7.4, for A1ARs; (ii) 50 mM Tris–HCl, 10 mM MgCl2 buffer, pH 7.4, for A2AARs; and (iii) 50 mM Tris–HCl, 10 mM MgCl2, 1 mM EDTA buffer, pH 7.4, for A3ARs. The cell suspension was incubated with adenosine deaminase for 30 min at 37°C. Then the membrane preparation was used for binding experiments.
The potency of antagonists at the A2BAR was determined in adenylyl cyclase experiments. For the measurement of adenylyl cyclase activity, only one high speed centrifugation of the homogenate was used. The resulting crude membrane pellet was resuspended in 50 mM Tris–HCl, pH 7.4 and immediately used for the cyclase assay.
(§2) Inhibitory binding constants, Ki, were calculated from the IC50 values according to the Cheng and Prusoff equation Ki = IC50/(1 + [C*]/KD*), where [C*] is the concentration of the radioligand and KD* its dissociation constant. A weighted nonlinear least-squares curve fitting program LIGAND was also used for computer analysis of inhibition experiments. Potency values (IC50) obtained in cyclic AMP assays were calculated by nonlinear regression analysis using the equation for a sigmoid concentration–response curve (Graph Pad Prism, San Diego, CA, USA). All experimental data are expressed as geometric mean with 95% confidence limits in parentheses of three or four independent experiments performed in duplicate.

The target in the next data set is T2, hA3AR (Homo sapiens, UniProt P0DMS8).
T2 construct: expressed in transfected cells; host or cells: CHO cells (membrane preparation)
T2 sequence (P0DMS8 1-318): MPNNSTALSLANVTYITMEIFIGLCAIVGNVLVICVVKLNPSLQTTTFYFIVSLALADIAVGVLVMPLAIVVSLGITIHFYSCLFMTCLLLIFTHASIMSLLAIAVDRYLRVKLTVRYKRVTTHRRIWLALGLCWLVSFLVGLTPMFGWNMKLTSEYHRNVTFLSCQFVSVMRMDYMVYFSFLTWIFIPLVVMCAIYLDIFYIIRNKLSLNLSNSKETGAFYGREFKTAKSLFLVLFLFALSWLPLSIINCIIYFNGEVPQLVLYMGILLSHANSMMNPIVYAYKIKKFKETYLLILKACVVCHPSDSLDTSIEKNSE
Description: Displacement of specific [3H]HEMADO binding at hA3AR expressed in CHO cells. The note with it: for Ki: [3H]-HEMADO displacement, CHO cells, n = 3–6, read-out: Ki hA3 (95% CI); for selectivity hA1/A3: ratio of Ki hA1 to Ki hA3; for selectivity hA2A/A3: ratio of Ki hA2A to Ki hA3 as headed.

For the next data set, the target named is T3, hA1AR (Homo sapiens, UniProt P30542).
T3 sequence (P30542 1-326): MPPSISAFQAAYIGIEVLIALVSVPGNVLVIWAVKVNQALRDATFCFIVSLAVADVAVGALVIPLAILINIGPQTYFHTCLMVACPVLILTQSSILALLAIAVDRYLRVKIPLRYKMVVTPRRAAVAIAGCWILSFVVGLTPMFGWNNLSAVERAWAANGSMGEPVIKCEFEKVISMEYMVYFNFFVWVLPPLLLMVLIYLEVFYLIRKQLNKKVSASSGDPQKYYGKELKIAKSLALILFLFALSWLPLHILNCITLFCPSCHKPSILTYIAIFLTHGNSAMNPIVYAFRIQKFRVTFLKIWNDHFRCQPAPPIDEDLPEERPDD
Description: Displacement of specific [3H]CCPA binding at hA1AR expressed in CHO cells. The note with it: [3H]-CCPA displacement, n = 3–6, read-out: Ki hA1 (95% CI).
Text: (§3) The receptor binding affinities of the synthesized benzothiazolylquinoline derivatives (6a-l) are recapitulated in table 2. The binding affinity of the antagonist was estimated by measuring the displacement of selective radioligands which were formerly bound to the receptor expressed (Chinese hamster ovary cells (CHO) for hA1AR, hA2AAR and hA3AR) at the surface of the cell. In this particular assay, the displacement of: (i) specific [3H] CCPA (2-chloro-N(6)-cyclopentyladenosine) binding at hA1AR, (ii) specific [3H] NECA (5'-N-ethylcarboxamidoadenosine) binding at the hA2AAR, and (iii) [3H] HEMADO (2-(1-hexynyl)-N^6-methyladenosine) at the hA3AR were evaluated. […] Ki (dissociation constant) value of the data was calculated using the Cheng and Prusoff equation [49], with geometric means of at least three experiments including 95% confidence intervals. […] Selectivity of this compound at hA3 with respect to hA1 and hA2 has also been reduced to some extent.
as §1
(§4) For radioligand binding at A1 ARs 1 nM [3H] CCPA was used, whereas 30 nM of [3H] NECA were used for A2A and 10 nM of [3H]- HEMADO were used for A3 receptors, respectively. Nonspecific binding of [3H]CCPA was determined in the presence of 1 mM theophylline, when [3H]NECA 100 µM R-PIA was used.
as §2

Another data set concerns the target T4, hA2AAR (Homo sapiens, UniProt P29274).
T4 construct: expressed in transfected cells; host or cells: CHO cells (membrane preparation)
Description: Displacement of specific [3H]NECA binding at hA2AAR expressed in CHO cells. The settings on record: [3H]-NECA displacement, n = 3–6, read-out: Ki hA2A (95% CI).
Text: as §3, §1, §4, §2

Molecules are shown by their SMILES. Several values for one entry are separate records, joined by “and”; a condition that tells them apart may be missing. Equal values may be shown once.

T4 sequence (P29274 whole entry): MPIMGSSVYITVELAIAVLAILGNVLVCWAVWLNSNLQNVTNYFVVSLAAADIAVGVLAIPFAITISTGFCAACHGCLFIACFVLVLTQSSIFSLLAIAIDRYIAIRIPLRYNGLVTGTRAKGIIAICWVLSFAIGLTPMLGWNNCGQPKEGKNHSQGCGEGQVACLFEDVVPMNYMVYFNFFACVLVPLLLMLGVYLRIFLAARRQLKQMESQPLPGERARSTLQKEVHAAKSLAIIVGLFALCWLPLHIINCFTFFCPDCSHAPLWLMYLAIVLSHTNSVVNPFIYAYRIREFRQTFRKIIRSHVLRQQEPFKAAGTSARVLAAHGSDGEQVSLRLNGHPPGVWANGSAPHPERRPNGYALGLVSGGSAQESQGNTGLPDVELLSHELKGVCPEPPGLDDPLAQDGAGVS
Description for hA3AR: The human A1, A2A, A2B, and A3ARs were transfected in CHO cells based on the previously reported method [47–50]. The cells were grown adherently and maintained in Dulbecco's modified Eagle's medium with nutrient mixture F12 (DMEM/F12) without nucleosides, containing 10% foetal calf serum, streptomycin (100 µg ml^−1), penicillin (100 µg ml^−1), L-glutamine (2 mM) and Geneticin (G418, 0.2 mg ml^−1) at 37°C in 5% CO2, 95% air. The membrane preparation was initiated by removal of culture medium followed by washing of the cells with phosphate buffered saline and scraped off T75 flasks in ice-cold hypotonic buffer (5 mM Tris–HCl, 2 mM EDTA, pH7.4). Then the cell suspension was homogenized with a polytron, and the homogenate was centrifuged for 10 min at 1000 g. The supernatant was then centrifuged for 30 min at 100 000 g. The membrane pellet was suspended in (i) 50 mM Tris–HCl buffer, pH 7.4, for A1ARs; (ii) 50 mM Tris–HCl, 10 mM MgCl2 buffer, pH 7.4, for A2AARs; and (iii) 50 mM Tris–HCl, 10 mM MgCl2, 1 mM EDTA buffer, pH 7.4, for A3ARs. The cell suspension was incubated with adenosine deaminase for 30 min at 37°C. Then the membrane preparation was used for binding experiments.
For radioligand binding at A1 ARs 1 nM [3H] CCPA was used, whereas 30 nM of [3H] NECA were used for A2A and 10 nM of [3H]- HEMADO were used for A3 receptors, respectively [47–50]. Nonspecific binding of [3H]CCPA was determined in the presence of 1 mM theophylline, when [3H]NECA 100 µM R-PIA was used.
Inhibitory binding constants, Ki, were calculated from the IC50 values according to the Cheng and Prusoff equation Ki = IC50/(1 + [C*]/KD*), where [C*] is the concentration of the radioligand and KD* its dissociation constant [49, 50]. A weighted nonlinear least-squares curve fitting program LIGAND was also used for computer analysis of inhibition experiments. […] All experimental data are expressed as geometric mean with 95% confidence limits in parentheses of three or four independent experiments performed in duplicate.

Turning to `Clc1cc(I)c(OCCCOc2ccccc2-c2nc3ccccc3s2)c2ncccc12` [Compound 6h], the Ki at hA2BAR is over 20 µM; at hA3AR, 6.1 µM; on hA1AR, over 100 µM; on hA2AAR, over 20 µM.

As for `Brc1cc(Br)c2cccnc2c1OCCOc1ccccc1-c1nc2ccccc2s1` [Compound 6b], the melting point is 110 to 112 °C. In addition, the Ki on hA2BAR was over 20 µM. Further, at hA3AR, the Ki was found to be 3.2 µM, the “selectivity hA1/A3” value is recorded as over 31.25 and the “selectivity hA2A/A3” value is given as over 6.25. Further, on hA1AR, the Ki was over 100 µM. The Ki at hA2AAR is 17.2 µM.

Turning to `c1ccc(-c2nc3ccccc3s2)c(OCCOc2cccc3cccnc23)c1` [Compound 6a], the inhibition constant Ki was over 30 µM on hA2BAR; ~2.6 µM and 2.6 µM on hA3AR; over 100 µM at hA1AR; 23.8 µM on hA2AAR.

On to `Clc1ccc(OCCCCOc2ccccc2-c2nc3ccccc3s2)c2ncccc12` [Compound 6k], for which the inhibition constant (Ki) at hA2BAR was over 10 µM; on hA3AR it was 3.7 µM; at hA1AR, over 100 µM; at hA2AAR, over 20 µM.

In turn, `Clc1cc(I)c(OCCOc2ccccc2-c2nc3ccccc3s2)c2ncccc12` [Compound 6d] came in with a melting point of 125 to 127 °C. At hA2BAR, the Ki is over 20 µM. At hA3AR, the inhibitory constant (Ki) came to 5.6 µM, the “selectivity hA1/A3” value is reported as over 17.85 and the “selectivity hA2A/A3” value is given as over 3.57. Also, the Ki at hA1AR was over 100 µM. Moreover, the Ki on hA2AAR was over 20 µM.

As for `Clc1ccc(OCCOc2ccccc2-c2nc3ccccc3s2)c2ncccc12` [Compound 6c], the inhibitory constant (Ki) at hA2BAR is over 20 µM; on hA3AR, 30.4 µM; on hA1AR it was 30.8 µM; on hA2AAR, 32.8 µM.

`Brc1cc(Br)c2cccnc2c1OCCCCOc1ccccc1-c1nc2ccccc2s1` [Compound 6j]: the Ki was over 20 µM at hA2BAR, 6.4 µM at hA3AR, over 100 µM at hA1AR and over 20 µM on hA2AAR.

As to `c1ccc(-c2nc3ccccc3s2)c(OCCCOc2cccc3cccnc23)c1` [Compound 6e], the Ki on hA2BAR was over 30 µM; at hA3AR, 3.8 µM; at hA1AR, over 100 µM; at hA2AAR, over 20 µM.

For the compound `c1ccc(-c2nc3ccccc3s2)c(OCCCCOc2cccc3cccnc23)c1` [Compound 6i], the Ki at hA2BAR is over 20 µM; on hA3AR, 25.4 µM; on hA1AR, 29.7 µM; at hA2AAR it was 34.9 µM.

Regarding `Clc1ccc(OCCCOc2ccccc2-c2nc3ccccc3s2)c2ncccc12` [Compound 6g], the Ki is over 20 µM on hA2BAR, 4.2 µM at hA3AR, over 100 µM on hA1AR and over 20 µM at hA2AAR.

In the case of `Brc1cc(Br)c2cccnc2c1OCCCOc1ccccc1-c1nc2ccccc2s1` [Compound 6f], the Ki at hA2BAR was over 30 µM; at hA3AR, 6.2 µM; on hA1AR it was over 100 µM; at hA2AAR it was over 20 µM.

For the compound `Clc1cc(I)c(OCCCCOc2ccccc2-c2nc3ccccc3s2)c2ncccc12` [Compound 6l], the Ki on hA2BAR is over 30 µM; on hA3AR it was 3.6 µM; on hA1AR, over 100 µM; on hA2AAR it was over 20 µM.
